Holding throughout (format): biochemical
Experiment [1] concerns the target T1, PfDdi1 (Plasmodium falciparum, UniProt Q8IM03).
T1 construct: gene PF3D7_1409300; full length (382 aa), His-tagged (pET-28b NcoI/XhoI), E. coli Rosetta (DE3), Ni-NTA; ~44 kDa plus processed ~34 kDa fragment
T1 sequence (Q8IM03 1-382): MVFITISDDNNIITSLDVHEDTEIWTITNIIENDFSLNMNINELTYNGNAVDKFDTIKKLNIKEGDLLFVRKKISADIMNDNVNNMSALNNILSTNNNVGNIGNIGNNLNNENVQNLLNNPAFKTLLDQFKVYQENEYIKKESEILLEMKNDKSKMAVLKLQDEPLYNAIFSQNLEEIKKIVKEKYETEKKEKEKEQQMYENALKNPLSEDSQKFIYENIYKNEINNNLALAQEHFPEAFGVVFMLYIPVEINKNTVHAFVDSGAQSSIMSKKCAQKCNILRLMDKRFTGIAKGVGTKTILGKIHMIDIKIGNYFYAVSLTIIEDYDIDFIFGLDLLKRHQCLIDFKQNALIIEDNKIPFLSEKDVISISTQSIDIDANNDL
Kind of experiment: inhibition of FRET peptide cleavage.

Experiment [2] deals with T1, PfDdi1. Kind of experiment: inhibition of fluorogenic peptide cleavage.
Experiment [3] deals with T1, PfDdi1. Kind of experiment: inhibition of FRET peptide, AMC peptide and K48 polyubiquitin cleavage. The note with it: 10 min preincubation, sodium acetate pH 5.0, 37 °C, 2.0 μM enzyme.

This note sets out measurements from paper PMC8621276, “Artemisinin Binds and Inhibits the Activity of Plasmodium falciparum Ddi1, a Retroviral Aspartyl Protease” (Pathogens, 2021).

With `C[C@@H]1CC[C@H]2[C@@H](C)C(=O)O[C@@H]3O[C@@]4(C)CC[C@@H]1[C@]32OO4` [ART, artemisinin], at PfDdi1 [1], the inhibition (usually the share of the control response that was lost under treatment) at 1 µM is 71.4%.

At PfDdi1 [2], `Cc1cccc(C)c1OCC(=O)N[C@@H](Cc1ccccc1)[C@@H](O)C[C@H](Cc1ccccc1)NC(=O)[C@H](C(C)C)N1CCCNC1=O` [LPV, Lopinavir] came in with an inhibition at 50 µM of around 23.5%.

Turning to `C[C@@H]1CC[C@H]2[C@@H](C)C(O)O[C@@H]3O[C@@]4(C)CC[C@@H]1[C@]32OO4` (stereo partly drawn) [DHA, Dihydroartemisinin], on PfDdi1 [3], the “% inhibition at 1 μM” value is “artemisinin and its derivative, DHA, significantly inhibited the ability of PfDdi1 to degrade the polyubiquitinated”.
